Columns and labels:
Assay in all cases: Agar well diffusion antifungal assay
Assay type in all cases: cell-based
Settings in all cases: PDA plates, 25° C. 72 h
[1] = tested on: Alternaria alternata (Fries) Keissler (ATCC MYA-4642)
Experimental: (§1) Brain Heart Infusion (BHI) Agar was used for the antagonism against pathogenic microorganisms while the Potato Dextrose Agar (PDA) was used for evaluation against molds. […] Molds were prepared using PDA at 25° C. with 85% HR for 7 days. […] The same amount of mold spore suspension was inoculated on PDA.

[2] = tested on: Penicillium chrysogenum Thom (ATCC MYA-4644)
Experimental: as §1

[3] = tested on: Cladosporium sphaerospermum Penzig (ATCC MYA-4645)
Experimental: as §1

OO [Hydrogen peroxide 10%, Hydrogen peroxide]
Inhibition zone, Alternaria alternata (Fries) Keissler (ATCC MYA-4642) [1]: 8 mm | Inhibition zone, Penicillium chrysogenum Thom (ATCC MYA-4644) [2]: 10 mm | Inhibition zone, Cladosporium sphaerospermum Penzig (ATCC MYA-4645) [3]: 12 mm
